Measurements as given in patent US12331046B2, “CTPS1 inhibitors and uses thereof” (Nimbus Clotho, Inc., priority 2020, dated 2025).

Molecular target: human CTPS1 (Homo sapiens (Human), UniProt P17812)
Test: hCTPS1 biochemical assay (ADP-Glo)
Details: hCTPS1 25 nM, ATP 120 uM, UTP 160 uM, GTP 60 uM, L-Glutamine 100 uM, 25 degrees C

Sequence of human CTPS1 (P17812 whole entry): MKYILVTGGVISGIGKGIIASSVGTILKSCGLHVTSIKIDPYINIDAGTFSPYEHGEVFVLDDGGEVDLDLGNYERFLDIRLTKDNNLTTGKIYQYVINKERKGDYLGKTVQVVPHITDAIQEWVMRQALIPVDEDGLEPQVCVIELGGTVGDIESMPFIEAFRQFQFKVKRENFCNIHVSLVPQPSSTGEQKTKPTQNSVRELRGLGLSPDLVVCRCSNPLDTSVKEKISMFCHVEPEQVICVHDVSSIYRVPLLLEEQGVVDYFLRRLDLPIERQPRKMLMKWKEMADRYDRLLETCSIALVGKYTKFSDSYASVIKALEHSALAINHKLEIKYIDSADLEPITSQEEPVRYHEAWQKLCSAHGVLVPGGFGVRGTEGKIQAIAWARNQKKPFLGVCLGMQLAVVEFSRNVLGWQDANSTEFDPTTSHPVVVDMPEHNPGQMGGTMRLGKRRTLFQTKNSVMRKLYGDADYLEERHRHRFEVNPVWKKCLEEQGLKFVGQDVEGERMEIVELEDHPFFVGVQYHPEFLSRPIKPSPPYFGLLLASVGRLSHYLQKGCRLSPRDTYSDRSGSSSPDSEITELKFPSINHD

Row | IC50 | SMILES
1 | < 100 nM | CCOc1cncc(-c2cnc(C(=O)N[C@H](CCN3CC[C@H](F)C3)c3cc(NS(=O)(=O)C4CC4)ccn3)s2)n1 [I-126, N—((R)-1-(4-(cyclopropanesulfonamido)pyridin-2-yl)-3-((S)-3-fluoropyrrolidin-1-yl)propyl)-5-(6-ethoxypyrazin-2-yl)thiazole-2-carboxamide]
2 | < 100 nM | CCOc1cncc(-c2ccc(C(=O)NCc3cc(NS(=O)(=O)C(F)(F)F)ccn3)nc2)n1 [I-23, 5-(6-ethoxypyrazin-2-yl)-N-((4-((trifluoromethyl)sulfonamido)pyridin-2-yl)methyl) picolinamide]
3 | < 100 nM | CCOc1cncc(-c2ccc(C(=O)NCc3cc(NS(=O)(=O)C4CC4)ncn3)cc2)n1 [I-29, N-((6-(cyclopropanesulfonamido)pyrimidin-4-yl)methyl)-4-(6-ethoxypyrazin-2-yl)benzamide]
4 | < 100 nM | CCOc1cncc(-c2cnc(C(=O)N[C@@H](c3cc(NS(=O)(=O)C4CC4)ccn3)[C@H]3CCOC3)s2)n1 (single isomer, unassigned) [I-92]
5 | < 100 nM | CCOc1cncc(-c2cnc(C(=O)NC(CCN3CC[C@@H](F)C3)c3cc(NS(=O)(=O)C4CC4)ccn3)s2)n1 (stereo partly drawn) [I-131, N-(1-(4-(cyclopropanesulfonamido)pyridin-2-yl)-3-((R)-3-fluoropyrrolidin-1-yl)propyl)-5-(6-ethoxypyrazin-2-yl)thiazole-2-carboxamide]
6 | < 100 nM | CCOc1cncc(-c2cnc(C(=O)N3CCCC3c3cncc(NS(=O)(=O)C4CC4)c3)s2)n1 (stereo not drawn) [I-232, N-(5-(1-(5-(6-ethoxypyrazin-2-yl)thiazole-2-carbonyl)pyrrolidin-2-yl)pyridin-3-yl)cyclopropanesulfonamide]
7 | 100 to 1000 nM | Cc1cc2c(-c3cnc(C(=O)NCc4cc(NS(=O)(=O)C5CC5)ccn4)s3)cncn2n1 [I-185]
8 | < 100 nM | CCOc1cncc(-c2ccc(C(=O)N[C@H](CC)c3cc(NS(=O)(=O)C4CC4)ccn3)c(F)c2)n1 [I-72]
9 | < 100 nM | CCOc1cncc(-n2cc(C(=O)NC3(c4cccc(NS(=O)(=O)C(F)F)c4)CC3)cn2)n1 [I-274, N-[1-[3-(difluoromethanesulfonamido)phenyl]cyclopropyl]-1-(6-ethoxypyrazin-2-yl)pyrazole-4-carboxamide]
10 | 100 to 1000 nM | CCOc1cncc(-n2cnc(C(=O)NCc3cc(NS(=O)(=O)C4CC4)ccn3)c2)n1 [I-238]
11 | < 100 nM | CCOc1cncc(-c2cnc(C(=O)N[C@@H](CCN(C)C)c3cccc(NS(=O)(=O)C4CC4)c3)s2)n1 (single isomer, unassigned) [I-144]
12 | < 100 nM | CCOc1cncc(-c2cnc(C(=O)N[C@H](CC)c3cc(NS(=O)(=O)C4CC4)ccn3)s2)n1 [I-277]
13 | 100 to 1000 nM | CCOc1cncc(-c2cnc(C(=O)N3CCN(C)CC3c3cc(NS(=O)(=O)C4CC4)ccn3)s2)n1 (stereo not drawn) [I-218, N-(2-(1-(5-(6-ethoxypyrazin-2-yl)thiazole-2-carbonyl)-4-methylpiperazin-2-yl)pyridin-4-yl)cyclopropanesulfonamide]
14 | < 100 nM | CCOc1cncc(-c2cnc(C(=O)N[C@@H](CN3CCN(C(C)C)CC3)c3cc(NS(=O)(=O)C4CC4)ccn3)s2)n1 (single isomer, unassigned) [I-118]
15 | 100 to 1000 nM | CCOc1cncc(-c2cnc(C(=O)N3CCNCC3c3ccnc(NS(=O)(=O)C4CC4)n3)s2)n1 (stereo not drawn) [I-181, N-(4-{1-[5-(6-ethoxypyrazin-2-yl)-1,3-thiazole-2-carbonyl]piperazin-2-yl}pyrimidin-2-yl)cyclopropanesulfonamide]
16 | 100 to 1000 nM | Cc1cc2c(=O)[nH]c3ccc(C(=O)NCc4cc(NS(=O)(=O)C5CC5)ccn4)cc3n2c1 [I-162]

Row | IC50 | SMILES
17 | < 100 nM | CCOc1cncc(-c2ccc(NC(=O)Cc3cc(NS(=O)(=O)C4CC4)ccn3)cc2)n1 [I-35]
18 | 100 to 1000 nM | CCOc1cncc(-c2ccc(C(=O)NCc3nc(NS(=O)(=O)C4CC4)cs3)nc2)n1 [I-195, N-[(4-cyclopropanesulfonamido-1,3-thiazol-2-yl)methyl]-5-(6-ethoxypyrazin-2-yl)pyridine-2-carboxamide]
19 | < 100 nM | CCOc1cncc(-c2cnc(C(=O)NC(CN3[C@H](C)COC[C@@H]3C)c3cc(NS(=O)(=O)C4CC4)ccn3)s2)n1 (stereo partly drawn) [I-111]
20 | < 100 nM | CCOc1cncc(-c2ccc(C(=O)NCc3cc(NS(=O)(=O)C4CC4)ncn3)nc2)n1 [I-22, N-[(6-cyclopropanesulfonamidopyrimidin-4-yl)methyl]-5-(6-ethoxypyrazin-2-yl) pyridine-2-carboxamide]
21 | 100 to 1000 nM | CCOc1cncc(-n2cc(C(=O)NCc3cc(NS(=O)(=O)C4CC4)ccn3)cn2)n1 [I-244]
22 | < 100 nM | CCOc1cncc(-c2cnc(C(=O)N[C@@H](CN3CCNCC3)c3cc(NS(=O)(=O)C4CC4)ccn3)s2)n1 [I-206, (S)—N-(1-(4-(cyclopropanesulfonamido)pyridin-2-yl)-2-(piperazin-1-yl)ethyl)-5-(6-ethoxypyrazin-2-yl)thiazole-2-carboxamide]
23 | ≥ 1000 nM | CCC[C@@H]1CCN1c1ncc(C(=O)NCc2cc(NS(=O)(=O)C3CC3)ccn2)nc1C [I-60, (R)—N-((4-(cyclopropanesulfonamido)pyridin-2-yl)methyl)-6-methyl-5-(2-propylazetidin-1-yl)pyrazine-2-carboxamide]
24 | 100 to 1000 nM | CCOc1cncc(-c2cnc(C(=O)N[C@@H](CN3CCC3)c3cc(NS(=O)(=O)C4CC4)ccn3)s2)n1 (single isomer, unassigned) [I-221]
25 | 100 to 1000 nM | O=C(NCc1cc(NS(=O)(=O)C2CC2)ccn1)c1ccc(-c2cncc(N3CCCC3)n2)cc1 [I-42]
26 | 100 to 1000 nM | CCOc1cncc(-c2cnc(C(=O)N3CCC[C@H]3c3cccc(NS(=O)(=O)C4CC4)n3)s2)n1 [I-231, N-[6-[(2S)-1-[5-(6-ethoxypyrazin-2-yl)-1,3-thiazole-2-carbonyl]pyrrolidin-2-yl]pyridin-2-yl]cyclopropanesulfonamide]
27 | < 100 nM | CCOc1cncc(-n2cnc(C(=O)N3CCC[C@H]3c3ccnc(NS(=O)(=O)C4CC4)n3)c2)n1 [I-276, N-[4-[(2S)-1-[1-(6-ethoxypyrazin-2-yl)imidazole-4-carbonyl]pyrrolidin-2-yl]pyrimidin-2-yl]cyclopropanesulfonamide]
28 | < 100 nM | CCOc1cncc(-c2cnc(C(=O)N[C@@H](CC)c3cc(NS(=O)(=O)C4CC4)ccn3)s2)n1 [I-278]
29 | < 100 nM | CCOc1cncc(-c2ccc(C(=O)NCc3cncc(NS(=O)(=O)C4CC4)c3)cc2)n1 [I-36]
30 | 100 to 1000 nM | CCOc1cncc(-c2ccc(C(=O)N3CCC[C@@H]3c3cc(NS(=O)(=O)C4CC4)ccn3)cc2)n1 [I-77, (R)—N-(2-(1-(4-(6-ethoxypyrazin-2-yl)benzoyl)pyrrolidin-2-yl)pyridin-4-yl)cyclopropanesulfonamide]
31 | < 100 nM | CCOc1cncc(-c2cnc(C(=O)N[C@H](CN3C[C@H]4C[C@@H]3CO4)c3cc(NS(=O)(=O)C4CC4)ccn3)s2)n1 [I-112, N—((R)-2-((1R,4R)-2-oxa-5-azabicyclo[2.2.1]heptan-5-yl)-1-(4-(cyclopropanesulfonamido)pyridin-2-yl)ethyl)-5-(6-ethoxypyrazin-2-yl)thiazole-2-carboxamide]

Row | SMILES | IC50
32 | CCOc1cncc(-c2cnc(C(=O)NCc3cc(NS(=O)(=O)C4CC4)ccn3)s2)n1 [I-50] | < 100 nM
33 | CCOc1cncc(-c2ccc(C(=O)NCc3nsc(NS(=O)(=O)C4CC4)n3)cc2)n1 [I-48, N-((5-(cyclopropanesulfonamido)-1,2,4-thiadiazol-3-yl)methyl)-4-(6-ethoxypyrazin-2-yl)benzamide] | < 100 nM
